Where two headings read alike, the source gives them in different places.
Experiments:
human CRM1 = assay: In vitro CRM1-NES pull-down binding assay (immobilized GST-NES); conditions: immobilized GST-PKI^NES mutants, purified CRM1 and RanGTP; 2.5 μM HsCRM1, 7.5 μM ScRanGTP, 30 min 4°C; Coomassie-stained SDS/PAGE
Protocol: After affinity purification, ^ScRan was loaded with GTP (incubated with molar excess of ethylenediaminetetraacetic acid (EDTA) for 30 min on ice followed by incubation with excess GTP and MgOAC for 30 min at room temperature) and then purified by ion exchange chromatography (HiTrap SP, GE Healthcare Life Sciences). NESs were cloned into the pGEX-TEV vector ([Chook and Blobel, 1999]), purified, and immobilized on glutathione Sepharose beads (GE Healthcare Life Sciences) in TB buffer described above containing 15% glycerol. 2.5 μM ^HsCRM1 and 7.5 μM ^ScRanGTP were added to ∼10 μg of immobilized GST-NESs in TB buffer in total volumes of 200 μl for 30 min at 4°C. Unbound proteins were washed extensively with TB buffer and bound proteins on the Sepharose beads were separated by sodium dodecyl sulfate polyacrylamide gel electrophoresis (SDS/PAGE) and visualized with Coomassie Blue staining. All binding assays were performed in triplicates. To compare the relative intensities of CRM1 bands to yield an estimate of binding activities of various NES mutants, SDS/PAGE gels were dried and scanned with an Epson V300 scanner and the images analyzed with ImageJ software. CRM1 band intensities were corrected for differences in GST-NESs band intensities and normalized to wild-type control intensity in each set of mutations. Corrected relative CRM1 band intensities were plotted as histograms with standard errors with GraphPad Prism.
To test putative minus NESs identified from the Dbase data set, 5 μM ^HsCRM1 with or without 15 μM ^ScRanGTP were used instead. Putative NESs that show no CRM1 binding were expressed in larger scale and purified by size-exclusion chromatography to assess their aggregation states. They were also subjected to intact mass determination by mass spectroscopy to ensure that the GST-NES proteins were not degraded.

CRM1 = CRM1 (Homo sapiens, UniProt O14980); assay: Competition differential bleaching assay monitored by microscale thermophoresis instrument (MBP-NES vs FITC-PKI^NES); type: binding; conditions: brackets = 68.3% confidence interval
Chain of CRM1 (O14980 whole entry, other chains not shown): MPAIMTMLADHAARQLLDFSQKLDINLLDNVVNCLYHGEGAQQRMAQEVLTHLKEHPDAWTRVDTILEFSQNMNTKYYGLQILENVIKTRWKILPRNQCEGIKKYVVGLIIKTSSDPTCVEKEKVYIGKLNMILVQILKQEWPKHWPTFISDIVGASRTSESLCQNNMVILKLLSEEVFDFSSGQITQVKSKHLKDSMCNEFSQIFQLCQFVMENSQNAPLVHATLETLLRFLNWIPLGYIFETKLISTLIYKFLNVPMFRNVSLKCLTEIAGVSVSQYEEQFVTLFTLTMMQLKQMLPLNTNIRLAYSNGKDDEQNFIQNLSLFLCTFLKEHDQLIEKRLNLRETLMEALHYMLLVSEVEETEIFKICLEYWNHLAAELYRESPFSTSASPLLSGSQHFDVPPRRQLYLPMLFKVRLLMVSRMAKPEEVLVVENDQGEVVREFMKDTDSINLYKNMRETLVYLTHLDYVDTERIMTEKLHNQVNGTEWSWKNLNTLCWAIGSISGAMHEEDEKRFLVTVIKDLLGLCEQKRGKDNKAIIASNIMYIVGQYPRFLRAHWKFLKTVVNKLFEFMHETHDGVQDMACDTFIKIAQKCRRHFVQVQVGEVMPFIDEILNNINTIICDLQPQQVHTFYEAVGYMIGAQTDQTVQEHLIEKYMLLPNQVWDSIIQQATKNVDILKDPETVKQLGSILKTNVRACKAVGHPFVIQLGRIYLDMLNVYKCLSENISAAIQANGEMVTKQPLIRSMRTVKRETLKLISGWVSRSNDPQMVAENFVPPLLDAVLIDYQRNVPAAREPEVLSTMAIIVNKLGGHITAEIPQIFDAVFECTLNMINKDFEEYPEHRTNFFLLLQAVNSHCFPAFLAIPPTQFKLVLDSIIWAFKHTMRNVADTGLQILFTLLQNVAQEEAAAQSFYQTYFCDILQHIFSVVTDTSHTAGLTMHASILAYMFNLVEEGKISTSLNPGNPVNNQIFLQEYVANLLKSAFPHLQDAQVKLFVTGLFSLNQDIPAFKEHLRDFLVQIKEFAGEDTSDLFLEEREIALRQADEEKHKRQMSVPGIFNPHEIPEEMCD
Text: To first investigate whether features of the sequence such as spacings between hydrophobic residues and placement of the ΦXΦ motif are critical in determining directionality of NES binding, we reversed the sequence of the hRio2^NES ([…]) to generate hRio2^NES-R ([…]). We also reversed CPEB4^NES ([…]) to generate CPEB4^NES-R ([…]). Both reversed peptides match the class 1a NES pattern and were predicted to bind CRM1 like the PKI^NES, which is another class 1a NES. Binding affinities of NES peptides to CRM1 were measured in competition differential bleaching experiments using FITC-PKI^NES as a fluorescent probe, MBP-NESs as competitors and monitored with a microscale thermophoresis instrument (Figure 4, Figure 4—figure supplement 1). Wild-type NESs MBP-hRio2^NES and MBP-CPEB4^NES bind CRM1 with KDs of 2200 nM [1600,2900] and 590 nM [400,840], respectively (Figure 4B). The ranges in brackets represent the 68.3% confidence intervals as calculated using F-statistics and error-surface projection method ([Bevington and Robinson, 1992]). […] All of the NES peptides were also cloned into EYFP-NLS-NES fusions and tested for nuclear export activity in HeLa cells.
Differential bleaching was used as a parameter to monitor binding of MBP-NES proteins to CRM1. In short, we observed that the fluorophore reporter attached to PKI^NES (FITC) underwent a reproducible time-dependent bleaching when exposed to excitation light (Figure 4—figure supplement 2). Furthermore, this phenomenon was concentration-dependent, that is, the bleaching was accelerated when the FITC-PKI^NES probe was exposed to increasing concentrations of CRM1. […] The differential bleaching can be counteracted by titrating of mixture of FITC-PKI^NES and CRM1 with a known competitor, MBP-PKI^NES, which competes directly with the fluorescent probe for the NES binding groove in CRM1. A sigmoidal appearance of the binding and competition isotherms is observed when differential bleaching, quantified as the average fluorescence at a time after bleaching normalized by the averaged fluorescence just after the beginning of bleaching, is plotted vs titrant concentration in a semilog graph (see Figure 4).This illustrates that this bleaching behavior can be described as a two-state system where unbound probe and CRM1-bound probe bleach at different but specific rates, and that these quantities report on the populations of bound and unbound FITC-PKI^NES. A detailed description of the data-fitting procedures will be described in manuscript in preparation by C.A.B. For error reporting, we used F-statistics and error-surface projection method to calculate the 68.3% confidence intervals of the fitted data ([Bevington and Robinson, 1992]). While error reporting using the error surface projection method is relatively uncommon, the ranges more accurately represent the true confidence intervals given the observed noise in the performed set of experiments because they explicitly account for the ability of the fitting algorithm to compensate for fitting defects by modifying correlated parameters. Thus, they provide better evaluation of the fitted data than other, more commonly used methods (e.g., error estimations from the parametric variance-covariance matrix).
All proteins used were subjected to an extra gel filtration step and dialysis overnight in TB buffer with 15% glycerol to remove possible aggregation and ensures buffer matching. The FITC-PKI^NES peptide (FITC-[…]) was chemically synthesized by GenScript, NJ and dissolved in the TB buffer with 15% glycerol. For the direct titration, ^HsCRM1 was serially diluted from 40 μM to 1.2 nM and incubated with mixture of 120 μM ^ScRan-GTP and 40 nM FITC-PKI^NES in 1:1 vol to a total volume of 20 μl, and incubated for 1 hr in the dark at room temperature. […]

[1] = competition titration, MBP-NES 100 μM to 3 nM, 40 nM FITC-PKI^NES probe, 300 nM HsCRM1, 120 μM ScRan-GTP, mixed 1:1, TB buffer 15% glycerol, 0.05% Tween-20, 1.5 hr room temperature, triplicate titrations, read-out: KD (dissociation constant of NES binding to CRM1)
[2] = Figure 4—figure supplement 1, shorter hRio2^NES (without C-terminal lysine and glycine) and CPEB4^NES (without C-terminal methionine and arginine) constructs, competition differential bleaching as E1, read-out: KD of shorter NES constructs binding to CRM1

For “FDLNELALKLAGL [PKI^NES-Flip2, PKI^NES-Flip mutant with N-terminal FDL, GST-fusion]”, the “CRM1 binding in pull-down assay” value (human CRM1) was “graded increases in CRM1 binding”.
With GGSYGKIEELAQNFETMEFSR [hRio2^NES-R] the Kd (CRM1; [1]) was 2400 nM.
GGSYRMIDILSSELSHMDFTR [CPEB4^NES-R] gave a Kd (CRM1; [1]) of 780 nM.
For “GGSYRSFDMNELALKLAGLD [PKI^NES-Flip3, PKI^NES-Flip mutant with N-terminal FDM, GST-fusion]”, the “CRM1 binding in pull-down assay” value (human CRM1) was “graded increases in CRM1 binding”.
Substance “GGSY^379RTFDMHSLESSLIDI^393 [CPEB4^NES, nuclear export signal of CPEB4 (residues 379-393), tested as MBP- or GST-fusion]” has a Kd (CRM1; [2]) of 1600 nM and a Kd (CRM1; [1]) of 590 nM.
“GGSY^389RSFEMTEFNQALEEI^403 [hRio2^NES, nuclear export signal of hRio2 (residues 389-403), tested as MBP- or GST-fusion]” was tested, and the Kd (CRM1; [2]) was 1400 nM and the Kd (CRM1; [1]) was 2200 nM.
With “IDLNELALKLAGL [PKI^NES-Flip1, PKI^NES with inverted LDI at the N-terminus, GST-fusion]” the “CRM1 binding in pull-down assay” value (human CRM1) was “does not interact with CRM1”.

Source: PMC4596688, “Structural determinants of nuclear export signal orientation in binding to exportin CRM1” (eLife, 2015)
